The values below come from patent publication US8642594B2, “Substituted thieno[2,3-d]pyrimidines as HSP90 inhibitors” (Vernalis (R&D) Limited, priority 2003, dated 2014).

T1 sequence (P08238 whole entry): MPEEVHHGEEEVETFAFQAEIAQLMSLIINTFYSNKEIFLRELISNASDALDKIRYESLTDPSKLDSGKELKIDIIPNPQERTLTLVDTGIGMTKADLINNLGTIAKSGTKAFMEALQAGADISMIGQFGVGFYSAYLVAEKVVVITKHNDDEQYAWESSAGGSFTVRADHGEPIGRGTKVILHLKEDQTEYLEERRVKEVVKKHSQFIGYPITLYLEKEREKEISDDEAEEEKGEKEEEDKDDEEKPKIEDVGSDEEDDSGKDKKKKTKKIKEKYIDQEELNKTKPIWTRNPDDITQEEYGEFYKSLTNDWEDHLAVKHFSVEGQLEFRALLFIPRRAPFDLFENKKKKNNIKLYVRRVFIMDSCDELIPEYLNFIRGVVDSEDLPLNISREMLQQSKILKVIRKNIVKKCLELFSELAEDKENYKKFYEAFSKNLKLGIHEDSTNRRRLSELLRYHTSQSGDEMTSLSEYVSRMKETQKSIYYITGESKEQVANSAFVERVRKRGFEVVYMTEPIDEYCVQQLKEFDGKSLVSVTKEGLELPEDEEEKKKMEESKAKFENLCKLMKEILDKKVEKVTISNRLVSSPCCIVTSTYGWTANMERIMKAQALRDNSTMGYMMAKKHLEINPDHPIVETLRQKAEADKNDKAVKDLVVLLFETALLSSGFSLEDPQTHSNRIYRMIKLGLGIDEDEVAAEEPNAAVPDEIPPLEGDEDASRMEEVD

One test has as its target T1, Human full-length Hsp90 (Homo sapiens, UniProt P08238).
T1 construct: E. coli expressed human full-length HSP90 protein, purified >95%; made in house; host or cells: E. coli
Nature of the test: Fluorescence polarization assay (competitive binding to HSP90, probe RBT0045864-FAM).
Settings: not given
In short, it runs like this:
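Competitive fluorescence polarization: test compound displaces FAM-labelled probe RBT0045864-FAM (200 nM working solution) from HSP90 after equilibration, and anisotropy change is measured. Compounds serially diluted; BSA-containing buffer; standard compound as positive control; Z′ from zero and positive controls.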
In general terms: Fluorescence polarisation rises when a labelled molecule tumbles more slowly, as on binding a larger partner.
Broadly, the IC50 is the concentration at which inhibition is half-maximal. With `CCNC(=O)c1cc2c(-c3cc(OCCN(CC)CC)c(Cl)cc3Cl)nc(N)nc2s1` [Example 235, 2-Amino-4-[2,4-dichloro-5-(2-diethylamino-ethoxy)-phenyl]-thieno[2,3-d]pyrimidine-6-carboxylic acid ethyl amide], the IC50 was < 10 µM.

As for `CCNC(=O)c1cc2c(-c3cc(OCCN4CCN(C)CC4)c(Cl)cc3Cl)nc(N)nc2s1` [Example 246], the half-inhibitory concentration (IC50) is < 10 µM.

Regarding `CCNC(=O)c1cc2c(-c3cc(OCCNCCOC)c(Cl)cc3Cl)nc(N)nc2s1` [Example 247], the IC50 was < 10 µM.

Regarding `CCNC(=O)c1cc2c(-c3cc(OCCN4CCC(F)(F)CC4)c(Cl)cc3Cl)nc(N)nc2s1` [Example 250], the half-maximal inhibitory concentration (IC50) is < 10 µM.

Take `CCN(CC)CCOc1cc(-c2nc(N)nc3sc(C(=O)NC4CC4)cc23)c(Cl)cc1Cl` [Example 251]: the half-inhibitory concentration (IC50) is < 10 µM.

In the case of `CCNC(=O)c1cc2c(-c3cc(OCCN4CCCC4)c(Cl)cc3Cl)nc(N)nc2s1` [Example 253], the IC50 was < 10 µM.

As for `CCNC(=O)c1cc2c(-c3cc(OCCN(C)C)c(Cl)cc3Cl)nc(N)nc2s1` [Example 254], the IC50 is < 10 µM.

`CCNC(=O)c1cc2c(-c3cc(OCCCN(C)C)c(Cl)cc3Cl)nc(N)nc2s1` [Example 255]: the concentration for half-maximal inhibition (IC50) was < 10 µM.

On to `CCNC(=O)c1cc2c(-c3cc(OCC(N)=O)c(Cl)cc3Cl)nc(N)nc2s1` [Example 267], for which the IC50 was < 10 µM.

`CCNC(=O)c1cc2c(-c3cc(OCC#N)c(Cl)cc3Cl)nc(N)nc2s1` [Example 270]: the IC50 was < 10 µM.

Staying with this test, now noted: fluorescence polarization assay, activity range; read-out: Hsp90 FP IC50.
As to `CCNC(=O)c1cc2c(-c3cc(CNCCO)ccc3C)nc(N)nc2s1` [Example 205], the IC50 was < 10 µM.

For the compound `CCNCc1ccc(C)c(-c2nc(N)nc3sc(C(=O)NCC)cc23)c1` [Example 206], the half-inhibitory concentration (IC50) was < 10 µM.

As for `CCNC(=O)c1cc2c(-c3cc(CNCc4ccc(S(N)(=O)=O)cc4)ccc3C)nc(N)nc2s1` [Example 207], the IC50 was < 10 µM.

Consider `CCNC(=O)c1cc2c(-c3cc(CNCCC(N)=O)ccc3C)nc(N)nc2s1` [Example 208], for which the IC50 was < 10 µM.

With `C=CCNCc1ccc(C)c(-c2nc(N)nc3sc(C(=O)NCC)cc23)c1` [Example 209], the IC50 was < 10 µM.

As for `CCNC(=O)c1cc2c(-c3cc(CNCc4ccco4)ccc3C)nc(N)nc2s1` [Example 210], the IC50 is < 10 µM.

For the compound `CCNC(=O)c1cc2c(-c3cc(CNCc4ccc(C)o4)ccc3C)nc(N)nc2s1` [Example 211], the half-inhibitory concentration (IC50) is < 10 µM.

As to `CCNC(=O)c1cc2c(-c3cc(CNCC4CCCO4)ccc3C)nc(N)nc2s1` (stereo not shown) [Example 212], the half-maximal inhibitory concentration (IC50) is < 10 µM.

On to `CCCCNCc1ccc(C)c(-c2nc(N)nc3sc(C(=O)NCC)cc23)c1` [Example 213], for which the IC50 is < 10 µM.

In the case of `CCNC(=O)c1cc2c(-c3cc(CNCCc4cccs4)ccc3C)nc(N)nc2s1` [Example 214], the IC50 is < 10 µM.

For `CCNC(=O)c1cc2c(-c3cc(CNCCc4ccccc4)ccc3C)nc(N)nc2s1` [Example 215], the concentration for half-maximal inhibition (IC50) was < 10 µM.

Turning to `CCNC(=O)c1cc2c(-c3cc(CNCc4ccccn4)ccc3C)nc(N)nc2s1` [Example 216], the IC50 is < 10 µM.

`CCNC(=O)c1cc2c(-c3cc(CNCc4cccnc4)ccc3C)nc(N)nc2s1` [Example 217]: the IC50 is < 10 µM.

With `CCNC(=O)c1cc2c(-c3cc(CNCC(C)C)ccc3C)nc(N)nc2s1` [Example 218], the IC50 is < 10 µM.

As to `CCNC(=O)c1cc2c(-c3cc(CNCC(N)=O)ccc3C)nc(N)nc2s1` [Example 219], the IC50 was < 10 µM.

With `CCNC(=O)c1cc2c(-c3cc(CNCC4CCCO4)ccc3C)nc(N)nc2s1` (stereo not shown) [Example 223], the IC50 is < 10 µM.

Take `CCCNCc1cc(-c2nc(N)nc3sc(C(=O)NCC)cc23)c(C)cc1C` [Example 231]: the half-inhibitory concentration (IC50) was < 10 µM.

Consider `CCNC(=O)c1cc2c(-c3cc(CNCc4ccccc4)c(C)cc3C)nc(N)nc2s1` [Example 232], for which the IC50 is < 10 µM.

For `CCNC(=O)c1cc2c(-c3cc(CNCc4cccs4)c(C)cc3C)nc(N)nc2s1` [Example 233], the half-maximal inhibitory concentration (IC50) is < 10 µM.

For the compound `CCNC(=O)c1cc2c(-c3cc(CNCCO)c(C)cc3C)nc(N)nc2s1` [Example 234], the IC50 was < 10 µM.

With `CCNC(=O)c1cc2c(-c3cc(OCCN4CCOCC4)c(Cl)cc3Cl)nc(N)nc2s1` [Example 236, 2-Amino-4-[2,4-dichloro-5-(2-morpholin-4-yl-ethoxy)-phenyl]-thieno[2,3-d]pyrimidine-6-carboxylic acid ethyl amide], the half-maximal inhibitory concentration (IC50) is < 10 µM.

Consider `CCN(CC)CCOc1cc(-c2nc(N)nc3sc(C(=O)NC(C)C)cc23)c(Cl)cc1Cl` [Example 237, 2-Amino-4-[2,4-dichloro-5-(2-diethylamino-ethoxy)-phenyl]-thieno[2,3-d]pyrimidine-6-carboxylic acid isopropyl amide], for which the 50% inhibitory concentration (IC50) was < 10 µM.

On to `CCNC(=O)c1cc2c(-c3cc(OCCN4CCCCC4)c(Cl)cc3Cl)nc(N)nc2s1` [Example 238], for which the IC50 is < 10 µM.

Turning to `CCOC(=O)c1cc2c(-c3cc(OCc4ccccc4)c(Cl)cc3Cl)nc(N)nc2s1` [Example 239], the half-maximal inhibitory concentration (IC50) was < 10 µM.

Turning to `CCNC(=O)c1cc2c(-c3cc(O)c(Cl)cc3Cl)nc(N)nc2s1` [Example 240], the IC50 was < 10 µM.

`CCNC(=O)c1cc2c(-c3cc(OCc4ccccc4)c(Cl)cc3Cl)nc(N)nc2s1` [Example 241]: the IC50 is < 10 µM.

As to `CC(C)NC(=O)c1cc2c(-c3cc(OCc4ccccc4)c(Cl)cc3Cl)nc(N)nc2s1` [Example 242], the 50% inhibitory concentration (IC50) was < 10 µM.

In the case of `CCNC(=O)c1cc2c(-c3cccc(OCc4ccccc4)c3)nc(N)nc2s1` [Example 243], the IC50 was < 10 µM.

For `CCNC(=O)c1cc2c(-c3cccc(O)c3)nc(N)nc2s1` [Example 244], the IC50 was < 10 µM.

`CCNC(=O)c1cc2c(-c3cc(OCCNC4CCCCC4)c(Cl)cc3Cl)nc(N)nc2s1` [Example 245]: the half-inhibitory concentration (IC50) was < 10 µM.

With `CC(C)NC(=O)c1cc2c(-c3cc(O)c(Cl)cc3Cl)nc(N)nc2s1` [Example 248], the IC50 is < 10 µM.

Take `CCNC(=O)c1cc2c(-c3cc(OCCN4CCC(F)CC4)c(Cl)cc3Cl)nc(N)nc2s1` [Example 249]: the 50% inhibitory concentration (IC50) is < 10 µM.

In the case of `CCNC(=O)c1cc2c(-c3cc(OCC(C)CN(C)C)c(Cl)cc3Cl)nc(N)nc2s1` (stereo not shown) [Example 256], the IC50 was < 10 µM.

On to `CC(C)NC(=O)c1cc2c(-c3cc(OCCN4CCCC4)c(Cl)cc3Cl)nc(N)nc2s1` [Example 257], for which the half-inhibitory concentration (IC50) was < 10 µM.

On to `CCN(CC)CCOc1cc(-c2nc(N)nc3sc(C(=O)NCCO)cc23)c(Cl)cc1Cl` [Example 258], for which the half-inhibitory concentration (IC50) was < 10 µM.

`CCNC(=O)c1cc2c(-c3cccc(OCCN(CC)CC)c3)nc(N)nc2s1` [Example 260]: the 50% inhibitory concentration (IC50) was < 10 µM.

`CCNC(=O)c1cc2c(-c3cc(OCc4ccccn4)c(Cl)cc3Cl)nc(N)nc2s1` [Example 261]: the 50% inhibitory concentration (IC50) was < 10 µM.

As for `CCNC(=O)c1cc2c(-c3cc(OCC4CCCO4)c(Cl)cc3Cl)nc(N)nc2s1` (stereo not shown) [Example 262], the IC50 is < 10 µM.

`CCNC(=O)c1cc2c(-c3cc(OCCn4ccnc4)c(Cl)cc3Cl)nc(N)nc2s1` [Example 263]: the IC50 was < 10 µM.

`CCN(CC)CCOc1cc(-c2nc(N)nc3sc(C(=O)NC(C)(C)C)cc23)c(Cl)cc1Cl` [Example 265]: the IC50 was < 10 µM.

As for `CCN(CC)CCOc1cc(-c2nc(N)nc3sc(C(=O)NC(CO)CO)cc23)c(Cl)cc1Cl` [Example 266], the half-maximal inhibitory concentration (IC50) is < 10 µM.

Regarding `CCNC(=O)c1cc2c(-c3cc(OCc4cc(=O)[nH]c(=O)[nH]4)c(Cl)cc3Cl)nc(N)nc2s1` [Example 268], the 50% inhibitory concentration (IC50) was < 10 µM.

`CCNC(=O)c1cc2c(-c3cc(OCc4noc(-c5ccccc5OC)n4)c(Cl)cc3Cl)nc(N)nc2s1` [Example 269]: the IC50 was < 10 µM.

As for `CCNC(=O)c1cc2c(-c3cc(OCC(=O)N4CCOCC4)c(Cl)cc3Cl)nc(N)nc2s1` [Example 271], the 50% inhibitory concentration (IC50) was < 10 µM.

As to `CCNC(=O)c1cc2c(-c3cc(OCC4CCCCN4C)c(Cl)cc3Cl)nc(N)nc2s1` (stereo not shown) [Example 273, 2-Amino-4-[2,4-dichloro-5-(1-methyl-piperidin-2-ylmethoxy)-phenyl]-thieno[2,3d]pyrimidine-6-carboxylic acid ethylamide], the IC50 is < 10 µM.

`Cc1ccc(-c2nc(N)nc3sc(S(=O)(=O)NC4CC4)cc23)c(C)c1` [Example 274, 2-Amino-4-(2,4-dimethyl-phenyl)-thieno[2,3-d]pyrimidine-6-sulfonic acid cyclopropylamide]: the IC50 was < 10 µM.

For `CCOC(=O)c1cc2c(CCc3ccccc3)nc(N)nc2s1` [Example 275, 2-Amino-4-phenethyl-thieno[2,3-d]pyrimidine-6-carboxylic acid ethyl ester], the IC50 is < 10 µM.

As to `C=C(c1ccccc1)c1nc(N)nc2sc(C(=O)OCC)cc12` [Example 276], the half-inhibitory concentration (IC50) is < 10 µM.

For `C=C(c1ccc(F)cc1)c1nc(N)nc2sc(C(=O)OCC)cc12` [Example 277], the 50% inhibitory concentration (IC50) was < 10 µM.

As for `CCOC(=O)c1cc2c(/C=C/c3ccccc3)nc(N)nc2s1` [Example 278], the IC50 is < 10 µM.

Take `CCOC(=O)c1cc2c(/C=C/c3cccc(OC)c3)nc(N)nc2s1` [Example 279]: the half-maximal inhibitory concentration (IC50) is < 10 µM.

With `C=C(c1ccc(Cl)cc1)c1nc(N)nc2sc(C(=O)OCC)cc12` [Example 280], the 50% inhibitory concentration (IC50) is < 10 µM.

As to `CCOC(=O)c1cc2c(/C=C/c3ccc(Cl)cc3)nc(N)nc2s1` [Example 281], the concentration for half-maximal inhibition (IC50) is < 10 µM.

For the compound `CCOC(=O)c1cc2c(/C=C/c3ccc(F)cc3)nc(N)nc2s1` [Example 282], the concentration for half-maximal inhibition (IC50) was < 10 µM.

For the compound `C=C(c1ccccc1)c1nc(N)nc2sc(C(=O)NCC)cc12` [Example 283], the IC50 was < 10 µM.

With `CCOC(=O)c1cc2c(/C=C/c3cccc(C(F)(F)F)c3)nc(N)nc2s1` [Example 284], the concentration for half-maximal inhibition (IC50) is < 10 µM.

Take `CCOC(=O)c1cc2c(C(C)c3ccccc3)nc(N)nc2s1` (stereo not shown) [Example 285]: the IC50 is < 10 µM.
